Laboratory results reported in patent US20170029841A1, “METHODS AND COMPOSITIONS FOR SELECTIVE REGULATION OF PROTEIN EXPRESSION” (priority 2015, published 2017).

Tested on: maize tissue pools (tassel, ear, leaf, root, stem)
Assay: siRNA profiling microarray assay of mts-siRNA sequences across maize tissues
Details: for 01DKD2 V8-V9 Tassel relative signal value: germplasm 01DKD2, V8-V9 tassel; for 01DKD2 V10-V12 Tassel relative signal value: germplasm 01DKD2, V10-V12 tassel; for 01DKD2 Other Tissue relative signal value: germplasm 01DKD2, combined signals from other tissue; for LH244 V8-V9 Tassel relative signal value: germplasm LH244, V8-V9 tassel; for LH244 V10-V12 Tassel relative signal value: germplasm LH244, V10-V12 tassel; for LH244 Other Tissue relative signal value: germplasm LH244, combined signals from other tissue
Procedure, shortened: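 Total RNA from LH244 or 01DKD2 inbred maize tissue pools hybridized to microfluidic chips with triplicate complementary probes for 1,200 mts-siRNAs. Signals background-subtracted and normalized, reported as relative values with standard error. Differential expression by t-test, p<0.05.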

Substance	01DKD2 V8-V9 Tassel relative signal value	01DKD2 V10-V12 Tassel relative signal value	01DKD2 Other Tissue relative signal value	LH244 V8-V9 Tassel relative signal value	LH244 V10-V12 Tassel relative signal value	LH244 Other Tissue relative signal value
SEQ ID NO: 27: mts-siRNA sequence aligning to cDNA SEQ ID NO: 17 (CGGACATTTGCAGTTCTATGGT; expressed or natural sequence)	73	405.5	1	377.5	581.7	1.1
SEQ ID NO: 34: mts-siRNA sequence aligning to cDNA SEQ ID NO: 18 (ACGTGCATATCGCCATCCTCTGCT; expressed or natural sequence)	8.5	982	3.5	848.5	572.7	3
SEQ ID NO: 28: mts-siRNA sequence aligning to cDNA SEQ ID NO: 17 (GACATTTGCAGTTCTATGGTGT; expressed or natural sequence)	29	134.5	3.8	126.5	248	2.4
SEQ ID NO: 73: mts-siRNA sequence aligning to cDNA SEQ ID NO: 22 (AAGCTATCGATTCCCTAAGTGCCA; expressed or natural sequence)	37.5	1695.5	2	1058.5	2395.7	4.5
SEQ ID NO: 86: mts-siRNA sequence aligning to cDNA SEQ ID NO: 22 (CAAGGCAAGAAGGTGCTTGTTGTC; expressed or natural sequence)	3	256.5	3	173.5	241.7	2.4
SEQ ID NO: 87: mts-siRNA sequence aligning to cDNA SEQ ID NO: 22 (ACCAAGGATGTCGTCACCACCAAT; expressed or natural sequence)	25	91.5	2.5	56	104	4.7
SEQ ID NO: 24: mts-siRNA sequence aligning to cDNA SEQ ID NO: 17 (ATCACCATGCACGGTCGT; expressed or natural sequence)	16	174	3	104.5	322	7.7
SEQ ID NO: 49: mts-siRNA sequence aligning to cDNA SEQ ID NO: 19 (TACTACTACTCCCTTCTCGG; expressed or natural sequence)	57.5	867	55.3	340	1241.7	16.3
SEQ ID NO: 85: mts-siRNA sequence aligning to cDNA SEQ ID NO: 22 (CAAGGCAAGAAGGTGCTTGTTGT; expressed or natural sequence)	2.5	246	2.5	184	310	2.8
SEQ ID NO: 26: mts-siRNA sequence aligning to cDNA SEQ ID NO: 17 (CGCATGTCACATCGCCGTCCTC; expressed or natural sequence)	10	104	3.8	55.5	175.7	3.8
SEQ ID NO: 41: mts-siRNA sequence aligning to cDNA SEQ ID NO: 18 (ACCCTTGCGCCTTAACTATCGTGC; expressed or natural sequence)	5	752	3	185.5	702.7	0.9
SEQ ID NO: 23: mts-siRNA sequence aligning to cDNA SEQ ID NO: 17 (CATCACCATGCACGGTCGTCGT; expressed or natural sequence)	27	318	4.3	183.5	514	2.6
SEQ ID NO: 63: mts-siRNA sequence aligning to cDNA SEQ ID NO: 21 (TAGATCACTCGGGTCGCCACA; expressed or natural sequence)	14.5	18	1.5	34.5	11.7	3.2
SEQ ID NO: 31: mts-siRNA sequence aligning to cDNA SEQ ID NO: 17 (ACACGCATGTCACATCGCCGTC; expressed or natural sequence)	0	26.5	2.8	8	49	1.2
SEQ ID NO: 48: mts-siRNA sequence aligning to cDNA SEQ ID NO: 19 (AAAGTAGCTAACGACCACACCACC; expressed or natural sequence)	9.5	470.5	1	221	720.3	4.8
SEQ ID NO: 44: mts-siRNA sequence aligning to cDNA SEQ ID NO: 19 (TTGGCGTGAAAGCTCGAGTGCTCC; expressed or natural sequence)	15.5	1443.5	6.3	756	1340	1.8
SEQ ID NO: 62: mts-siRNA sequence aligning to cDNA SEQ ID NO: 21 (CAAATGAGTCATCGAAGCTGT; expressed or natural sequence)	13.5	15.5	1	44.5	11.3	1.8
